# Reference: US20130184272A1, “DIABETES THERAPEUTIC AGENT” (TAKEDA PHARMACEUTICAL COMPANY LIMITED, priority 2010, published 2013)
# Assays:
# myogenin = experiment: Muscle-related gene expression in myoblast: myogenin; format: cell-based, Mouse; settings: for Myogenin/36B4 expression level: 10 μM, 1 day, relative value
# EGLN3 = experiment: Muscle-related gene expression in myoblast: EGLN3; format: cell-based, Mouse; settings: for EGLN3/36B4 expression level: 10 μM, 1 day, relative value
# Protocol: • (1) In the same manner as in Example 1, C2C12 cell was cultured, and the compound of Reference Example 1 (10 nM) was added. A DMSO solution was added to the control group instead of the test compound. • (2) One day after the addition of the test compound or DMSO solution, total RNA was extracted using Rneasy 96 kit (Qiagen) and according to the manual of the kit, and cDNA was prepared using TaqMan reverse transcription reagent (Applied Biosystems). • (3) The expression level of MyoD (Mm00440387_m1, TaqMan Gene Expression Assays, Applied Biosystems), myogenin (Mm00446194_m1, TaqMan Gene Expression Assays, Applied Biosystems), creatine kinase (CKM) (Mm00432556_m1, TaqMan Gene Expression Assays, Applied Biosystems), EGLN3 (Mm00472200_m1, TaqMan Gene Expression Assays, Applied Biosystems) was measured by quantify PCR using ABI PRISM 7900 (Applied Biosystems). The expression level of each gene, shown in Table 3, Table 4, Table 5 and Table 6, was obtained by amendment against the expression level of 36B4 (Takeda Pharmaceutical Company Limited), and is shown in a relative value to the value of the control group cultured in a growth medium as 1.
# The data of Table 3, Table 4, Table 5 and Table 6 show mean±standard deviation at n=6 (n is the number of samples).
# The following depicts the sequences of genes used for the amendment. • 36B4-F: 5′-TGCCACACTCCATCATCAATG-3′ (SEQ ID NO: 1) • 36B4-R: 5′-CGCAAATGCAGATGGATCAG-3′ (SEQ ID NO: 2) • 5′-VIC-ACCTTCCCACTTACTGAAAAGGTCAAGGCC-TAMRA-3′ (SEQ ID NO: 3)
# [1] = tested on: Male FisherF344 rats fed with a high-fat diet; experiment: Antiobesity action and dyslipidemia improving effect in high-fat diet-loaded rat; format: in vivo
# Protocol: Male FisherF344 rats (CLEA Japan, Inc.) fed with a high-fat diet (45 kcal % fat, D12451, research diet) for 38 weeks from 5 weeks of age were used. They were bred with a powder high-fat diet (D12451M) for 4 weeks for acclimation, measured for body weight, body composition, amount of ingestion and plasma component, and divided into 3 groups (6 per group) without difference between them. The plasma components (total cholesterol, triglyceride, glucose concentration) were measured by HITACHI automatic analyzer 7070. As the body composition, total fat mass, body fat percentage, lean body mass of lower leg, and visceral fat mass were measured by X-ray CT apparatus (LCT-100A, LaTheta). The compound of Reference Example 1 was suspended in aqueous methylcellulose solution and orally administered repeatedly to 2 groups of the rats divided into 3 groups at 0.03 mg/kg or 0.1 mg/kg once a day for 14 days. A 0.5% aqueous methylcellulose solution was orally administered similarly to the remaining one group and used as a control group. On the administration completion day, the blood was drawn again from the tail vein, and plasma levels of total cholesterol, triglyceride, glucose, insulin and leptin, and body weight and body composition (total fat mass, body fat percentage, lean body mass of lower leg, visceral fat mass) were measured. The amount of ingestion was calculated from the amount of the feed given and the amount left, and the total of the test period was calculated. The numerical values in Table 11 and Table 12 show mean±standard deviation at n=5-6 (n is the number of rats).
# creatine kinase (CKM) = experiment: Muscle-related gene expression in myoblast: creatine kinase (CKM); format: cell-based, Mouse; settings: for CKM/36B4 expression level: 10 μM, 1 day, relative value
# PPARγ = experiment: Adipocyte-related gene expression level: PPARγ; format: cell-based
# Protocol: In the same manner as in Example 10, the cells were cultured, and total RNA was extracted using Rneasy96 kit (Qiagen) from the cell immediately before and 6 days after addition of […] of the compound of Reference Example 1. cDNA was prepared from the total RNA using TaqMan reverse transcription reagent (Applied Biosystems), quantitative PCR was performed by ABI PRISM7000 or 7000 using TaqMan Universal PCR master mix (Applied Biosystems) and commercially available primers, and the expression level of each gene was determined. The commercially available primers used were as follows. • C/EBPα (Mm00514283_s1, TaqMan Gene Expression Assays, Applied Biosystems) • C/EBPβ (Mm00843434_s1, TaqMan Gene Expression Assays, Applied Biosystems) • KLF15 (Mm00517792_m1, TaqMan Gene Expression Assays, Applied Biosystems) • PPARγ (Mm00440945_m1, TaqMan Gene Expression Assays, Applied Biosystems)
# The expression level was amended by the amount of 36B4 (Takeda Pharmaceutical Company Limited) in the same manner as in Example 3, and the relative values to the value immediately before addition of each gene compound as 1 are shown in Table 16. The data in Table 16 show mean±standard deviation at n=3-4 (n is the number of samples).
# MyoD = experiment: Muscle-related gene expression in myoblast: MyoD; format: cell-based, Mouse; settings: for MyoD/36B4 expression level: 10 μM, 1 day, relative value
# [2] = C2C12 cells cultured in a differentiation medium
# [3] = 0.03 mg/kg oral once a day, 14 days
# [4] = 0.1 mg/kg oral once a day, 14 days
smiles,measurement,setting,value
"Cc1ncccc1Oc1sc(C(N)=O)c2c1-c1c(cnn1C)CC2 [Ref. Ex. 1, 1-methyl-8-[(2-methylpyridin-3-yl)oxy]-4,5-dihydro-1H-thieno[3,4-g]indazole-6-carboxamide]",expression of myogenin (in words),myogenin; [2],promoted
same,Myogenin/36B4 expression level,myogenin; DM (differentiation medium),3.81 ± 0.55
same,Myogenin/36B4 expression level,myogenin; GM (growth medium),0.03 ± 0.00
same,expression of EGLN3 (in words),EGLN3; [2],increased
same,EGLN3/36B4 expression level,EGLN3; DM (differentiation medium),2.07 ± 1.15
same,EGLN3/36B4 expression level,EGLN3; GM (growth medium),2.12 ± 0.15
same,amount of ingestion (g/2 weeks),[1]; [3],165.8 ± 13.9 g/2 weeks
same,"body fat percentage, change rate (%)",[1]; [3],3.5 ± 1.5 %
same,body weight,[1]; [3],460.8 ± 15.3 g
same,"body weight, amount of change",[1]; [3],-3.8 ± 7.5 g
same,lean body mass (g) of lower leg,[1]; [3],82.9 ± 5.2 g
same,"lean body mass of lower leg, amount of change",[1]; [3],8.4 ± 1.7 g
same,plasma glucose,[1]; [3],142.3 ± 5.6 mg/dL
same,plasma insulin,[1]; [3],5.2 ± 1.0 ng/mL
same,plasma leptin,[1]; [3],1.2 ± 0.4 ng/dL
same,plasma total cholesterol,[1]; [3],102.3 ± 12.6 mg/dL
same,plasma triglyceride,[1]; [3],242.4 ± 92.5 mg/dL
same,total fat mass,[1]; [3],138.0 ± 16.6 g
same,"total fat mass, amount of change",[1]; [3],-17.5 ± 8.8 g
same,visceral fat mass,[1]; [3],53.8 ± 6.1 g
same,"visceral fat mass, amount of change",[1]; [3],-4.3 ± 3.4 g
same,amount of ingestion (g/2 weeks),[1]; [4],127.9 ± 21.2 g/2 weeks
same,body fat percentage (%),[1]; [4],26.9 ± 2.6 %
same,"body fat percentage, change rate (%)",[1]; [4],−7.1 ± 1.1 %
same,body weight,[1]; [4],446.5 ± 38.1 g
same,"body weight, amount of change",[1]; [4],-19.5 ± 11.0 g
same,lean body mass (g) of lower leg,[1]; [4],84.5 ± 6.9 g
same,"lean body mass of lower leg, amount of change",[1]; [4],9.8 ± 4.2 g
same,plasma glucose,[1]; [4],146.3 ± 5.9 mg/dL
same,plasma insulin,[1]; [4],2.8 ± 1.1 ng/mL
same,plasma leptin,[1]; [4],0.6 ± 0.4 ng/dL
same,plasma total cholesterol,[1]; [4],77.3 ± 9.6 mg/dL
same,plasma triglyceride,[1]; [4],100.1 ± 43.1 mg/dL
same,total fat mass,[1]; [4],120.5 ± 18.2 g
same,"total fat mass, amount of change",[1]; [4],-38.1 ± 6.7 g
same,visceral fat mass,[1]; [4],47.2 ± 9.0 g
same,"visceral fat mass, amount of change",[1]; [4],-11.0 ± 2.9 g
same,body weight (in words),[1]; administration at 0.1 mg/kg,clear body weight decreasing action
same,expression of creatine kinase (in words),creatine kinase (CKM); [2],promoted
same,CKM/36B4 expression level,creatine kinase (CKM); DM (differentiation medium),4.84 ± 1.08
same,CKM/36B4 expression level,creatine kinase (CKM); GM (growth medium),0.03 ± 0.01
same,PPARγ expression level (amended by 36B4),"PPARγ; 10 μm [sic] of compound, 6 days after addition, value immediately before addition = 1",4.5 ± 0.9
same,expression level of PPARγ (in words),PPARγ; C3H10T1/2 cell,decreased
same,expression of MyoD (in words),MyoD; [2],increased
same,MyoD/36B4 expression level,MyoD; DM (differentiation medium),1.59 ± 0.20
same,MyoD/36B4 expression level,MyoD; GM (growth medium),1.26 ± 0.10
